According to patent publication US20250019665A1, “SCALABLE BIOMANUFACTURING OF TUMOR ORGANOIDS” (The Board of Trustees of The University of Alabama, priority 2023, published 2025):

Key:
U251 = U251 inoculated as single cells, BR2 bioreactor, 60 and 120 rpm, 5 days of culture, with vs without ROCKi
Protocol: Next, the effects of Rho-associated protein kinase inhibitor (ROCKi) Y-27632 on different bioreactor culture conditions were tested. […] To verify the effects, U251 was inoculated as single cells with or without ROCKi. […] To test whether low cell proliferation is a result of apoptosis, live and dead cells were stained.

[1] = system: SOX2 and CD44 expression in GBO; test: IHC of GSC markers SOX2 and CD44 in GBO, fluorescence intensity by CTCF; type: cell-based; settings: GBO with vs without ROCKi
Protocol: To further examine whether ROCKi maintained GSC stemness, the expression of GSC markers, SOX2 and CD44, were analyzed (FIG. 6B).
where A is the two-dimensional projected area, and p is perimeter. Images were acquired with 12-bit depth, and the raw files were analyzed using NIS-Elements Viewer (Nikon) and ImageJ (NIH). Fluorescence intensity was calculated by the corrected total cell fluorescence (CTCF).
Immunohistochemistry (IHC): GBOs were fixed using 4% paraformaldehyde (Alfa Acsar, J61899AK) overnight and dehydrated using ethanol followed by xylene. Dehydrated GBOs were embedded in paraffin. Paraffin-embedded GBOs were sectioned to 5 to 10 μm thickness. Deparaffinization was done by xylene followed by ethanol. Sectioned GBOs were rehydrated with water. 10 mM sodium citrate buffer with […] was formulated for antigen retrieval and adjusted to pH 6.0. Antigen retrieval was performed at 95° C. for ten minutes. Sectioned GBOs were stained with primary antibodies: CD133, SOX2, CD44, NOTCH1, DLL1, HIF-1α, CD31, CD34, CD144, CD146, α-SMA, NG2, GFAP, Map2, S100B, VEGFR, ZO1, and POU3f2, followed by secondary staining. Cell nuclei were counter stained by Hoechst 33342 (Invitrogen, H1399). Stained GBOs were mounted using ProLong Glass Antifade Mountant with NucBlue (Invitrogen, P36981) and imaged by Nikon C2 Laser Scanning Confocal Microscope.

GBO (U251) = test: Live and dead cell staining of GBO; type: cell-based; settings: GBO in bioreactor, live and dead cells stained
Description: Live and Dead Cell Analysis: Cells were stained with Live and Dead Cell Kit according to manufacturer's protocol (Abcam, ab115347). Sample images were acquired and analyzed using Nikon C2 Laser Scanning Confocal Microscope.

Q: How did the cell proliferation (U251) turn out when C[C@@H](N)[C@H]1CC[C@H](C(=O)Nc2ccncc2)CC1 [ROCKi, Y-27632] was run?
A: Its cell proliferation is “inhibited cell proliferation”.

Q: And the “expression levels of GSC markers SOX2 and CD44” value [1]?
A: Its value is “not significantly different”.

Q: What about the apoptosis (GBO (U251)) of the same compound?
A: The apoptosis was “did not induce apoptosis”.
